The source of these data is paper PMC12652692, “Synthesis and In Vitro Anticancer Evaluation of Novel Phosphonium Derivatives of Chrysin” (International Journal of Molecular Sciences, 2025).

Assay in all cases: NCI60 one-dose screen
What all share (format): cell-based

The test system of one assay is HT29. The settings on record: Homo sapiens, HT-29; HT29, 10 μM; read-out: Growth percent. As to the method: (§1) The screening results are presented in the Supplementary Materials (Table S1), where the cytotoxicity was determined for the 10 µM concentration. […] The negative numbers indicate significant decreases in the cell number. […] Compared to the reference chrysin (2), all phosphonium hybrids (3a–h) had significant antiproliferative activities. […] At the same time, it should be noted that more than 60% average reduction was also obtained in the case of the other examined conjugates (3a–h).
(§2) A detailed description of the NCI screening procedures, including the one-dose and five-dose tests, can be found in the Supplementary Materials, on the website of NCI [39], and in our previous work.
(§3) A detailed description of the NCI screening procedures can also be found on the website of NCI [39], and in our […]
(§4) All candidates were examined at first at a single high dose (10 μM) in the full NCI60 cell panel. The value reported for the one-dose test is growth relative to the no-drug control and relative to the time zero number of cells. This made possible the disclosure of both growth inhibition (numbers between 0 and 100) and lethality (numbers less than 0). For example, a value of 100 means no growth inhibition. A value of 20 would mean 80% growth inhibition. A value of 0 means no net growth over the course of the analysis. A value of −20 would mean 20% lethality. A value of −100 means all cells are dead. […]
(§5) concentration levels. The human tumor cell lines of the cancer screening panel were grown in RPMI 1640 medium containing 5% fetal bovine serum and 2 mM l-glutamine. Characteristically, cells were injected in 96-well microtiter plates in 0.1 mL at plating densities ranging from 5000 to 40,000 cells/well, depending on the doubling time of individual cell lines. After cell inoculation, the microtiter plates were incubated at 37 °C, 5% carbon dioxide, 95% air, and 100% relative humidity for 24 hours before the addition of tested compounds. After 24 hours, 2 plates of each cell line were fixed in situ with Cl3COOH (TCA), to represent a measurement of the cell population for each cell line at the time of drug addition (tz). Tested compounds were solubilized in DMSO at 400-fold the desired final maximum test concentration and stored frozen before application. In the course of the drug addition, an aliquot of frozen concentrate was thawed and diluted to twice the desired final maximum test concentration with a complete medium containing 50 μg mL−1 gentamicin. Additional four, 10-fold or ½ log serial dilutions were produced to furnish a total of five drug concentrations plus control. Aliquots of 0.1 mL of these different drug dilutions were added to the appropriate microtiter wells already containing 0.1 mL of medium, resulting in the required final drug concentrations.
(§6) Following drug addition, the plates were incubated at 37 °C, 5% carbon dioxide, 95% air, and 100% relative humidity for an additional 48 hours. For adherent cells, the test was finished by the addition of cold Cl3COOH. Cells were fixed in situ by the addition of 50 μL of cold 50% (w/v) Cl3COOH, and incubated at 4 °C for 1 hour. The supernatant was discarded, and the plates were washed with H2O (5×) and dried in air. Sulforhodamine B (SRB) solution (0.1 mL) at 0.4% (w/v) in 1% CH3COOH was added to each well, and plates were incubated at RT for 10 min. After staining, the unbound dye was removed by washing five times with 1% CH3COOH, and the plates were dried in the air. The bound stain is afterward solubilized with a 10 mM trizma base, and the absorbance is read on an automated plate reader at λ = 515 nm. Utilizing the seven absorbance measurements [time zero (tz), control growth (c), and test growth in the presence of the drug at the five concentration levels (ti)], the percentage growth was determined at each of the drug concentration levels. Growth inhibition (%) was calculated as:
(§7) [(ti − tz)/(c − tz)] × 100, for concentrations where ti ≥ tz (1) […]

The subject of another assay is SK-MEL-5. The note with it: Homo sapiens; SK-MEL-5, 10 μM; read-out: Growth percent. The procedure:
as §1, §2, §3, §4, §5, §6, §7

The next assay has as its system SF-539. The note with it: Homo sapiens; SF-539, 10 μM; read-out: Growth percent. As to the method: as §1, §2, §3, §4, §5, §6, §7
The next assay deals with 786-0. The note with it: Homo sapiens; 786-0, 10 μM; read-out: Growth percent. As to the method: as §1, §2, §3, §4, §5, §6, §7
The next assay relates to NCI/ADR-RES. The note with it: Homo sapiens, read-out: Growth percent. The procedure: as §1, §2, §3, §4, §5, §6, §7
A further assay has as its system KM12. The settings on record: Homo sapiens; KM12, 10 μM; read-out: Growth percent. As to the method:
as §1, §2, §3, §4, §5, §6, §7

The test system of a further assay is SN12C. The settings on record: Homo sapiens, read-out: Growth percent. The procedure: as §1, §2, §3, §4, §5, §6, §7
The next assay has as its system DU-145. The settings on record: Homo sapiens; DU-145, 10 μM; read-out: Growth percent. As to the method: as §1, §2, §3, §4, §5, §6, §7
The next assay relates to HCT-116. The settings on record: Homo sapiens; HCT-116, 10 μM; read-out: Growth percent. The procedure: as §1, §2, §3, §4, §5, §6, §7
A further assay has as its system SNB-19. The settings on record: Homo sapiens; SNB-19, 10 μM; read-out: Growth percent. As to the method: as §1, §2, §3, §4, §5, §6, §7
Another assay concerns IGROV1. The note with it: Homo sapiens, IGROV-1; IGROV1, 10 μM; read-out: Growth percent. As to the method:
as §1, §2, §3, §4, §5, §6, §7

The next assay has as its system M14. The note with it: Homo sapiens; M14, 10 μM; read-out: Growth percent. As to the method:
as §1, §2, §3, §4, §5, §6, §7

For the next assay, the system named is UACC-257. The settings on record: Homo sapiens; UACC-257, 10 μM; read-out: Growth percent. The procedure: as §1, §2, §3, §4, §5, §6, §7
A further assay deals with MALME-3M. The note with it: Homo sapiens, read-out: Growth percent. The procedure: as §1, §2, §3, §4, §5, §6, §7
For a further assay, the system named is UO-31. The settings on record: Homo sapiens; UO-31, 10 μM; read-out: Growth percent. As to the method: as §1, §2, §3, §4, §5, §6, §7
The next assay relates to HS 578T. The note with it: Homo sapiens, read-out: Growth percent. As to the method: as §1, §2, §3, §4, §5, §6, §7
A further assay relates to HL-60(TB). The note with it: Homo sapiens, read-out: Growth percent. As to the method: as §1, §2, §3, §4, §5, §6, §7
The test system of a further assay is MCF7. The settings on record: Homo sapiens; MCF7, 10 μM; read-out: Growth percent. The procedure:
as §1, §2, §3, §4, §5, §6, §7

In another assay the test system is MDA-MB-231/ATCC. The note with it: Homo sapiens, read-out: Growth percent. As to the method:
as §1, §2, §3, §4, §5, §6, §7

The test system of the next assay is CAKI-1. The settings on record: Homo sapiens; CAKI-1, 10 μM; read-out: Growth percent. The procedure: as §1, §2, §3, §4, §5, §6, §7
Another assay concerns RXF 393. The note with it: Homo sapiens; RXF 393, 10 μM; read-out: Growth percent. The procedure: as §1, §2, §3, §4, §5, §6, §7

The structures appear in SMILES notation.

Take `O=c1cc(-c2ccccc2)oc2cc(OCCCC[P+](c3ccccc3)(c3ccccc3)c3ccccc3)cc(O)c12` [3a]: the activity at 10 µM in the assay on HT29 is -65%; with SK-MEL-5 it was -98.4%; with SF-539, -95.7%; with 786-0, -69.5%; with NCI/ADR-RES, -68.3%; in the assay with KM12, -85.2%. In addition, the activity at 10 µM in the assay on SN12C was -49.5%; with DU-145, -94.8%; in the assay with HCT-116, -58.1%; with SNB-19, -44.5%; in the assay on IGROV1, -75.7%; with M14 it was -70.1%. The activity at 10 µM is -91% in the assay on UACC-257; -88% in the assay with MALME-3M; -97.1% in the assay on UO-31; -35.2% with HS 578T; -51.5% in the assay on HL-60(TB); -79.1% with MCF7. Further, the activity at 10 µM in the assay with MDA-MB-231/ATCC was -32.2%; with CAKI-1, -97.1%.

As for `Cc1ccc([P+](CCCCOc2cc(O)c3c(=O)cc(-c4ccccc4)oc3c2)(c2ccc(C)cc2)c2ccc(C)cc2)cc1` [3b], the activity at 10 µM in the assay with HT29 is -60.7%; in the assay with SK-MEL-5, -96.5%; with SF-539, -80.5%; in the assay with 786-0 it was -69.8%; in the assay on RXF 393, -74.8%; in the assay with NCI/ADR-RES it was -65.7%. The activity at 10 µM in the assay with KM12 is -75.5%; in the assay on SN12C it was -84.4%; in the assay on DU-145, -85.9%; in the assay on HCT-116, 1.29%; in the assay on SNB-19, -96.1%; in the assay on IGROV1, -46.9%. Besides, the activity at 10 µM in the assay with M14 was -75.2%; with UACC-257, -72.2%; in the assay with MALME-3M it was -57.9%; in the assay with UO-31 it was -82.5%; with HS 578T, -52.2%; in the assay with HL-60(TB), -60.4%. Besides, the activity at 10 µM in the assay with MCF7 was -74.8%; in the assay with MDA-MB-231/ATCC, -90.7%; with CAKI-1 it was -90.4%.

Consider `COc1ccc([P+](CCCCOc2cc(O)c3c(=O)cc(-c4ccccc4)oc3c2)(c2ccc(OC)cc2)c2ccc(OC)cc2)cc1` [3c], for which the activity at 10 µM with HT29 is -82.8%; with SK-MEL-5, -93.9%; in the assay with SF-539 it was -66.9%; in the assay with 786-0, -65.3%; in the assay with RXF 393, -74.4%; with NCI/ADR-RES it was -13.2%. Further, the activity at 10 µM in the assay on KM12 is -86.2%; in the assay on SN12C it was -59%; in the assay on DU-145 it was -90.7%; in the assay with HCT-116, -95.5%; with SNB-19, -78.9%; in the assay on IGROV1 it was -6.99%. The activity at 10 µM is -1.24% in the assay with M14; -94.7% in the assay with UACC-257; -45% with MALME-3M; -89.9% in the assay with UO-31; -62.7% with HS 578T; -31.2% in the assay with HL-60(TB). Also, the activity at 10 µM with MCF7 is -56.8%; in the assay on MDA-MB-231/ATCC it was -72.1%; with CAKI-1, -75.5%.

For `O=c1cc(-c2ccccc2)oc2cc(OCCCC[P+](c3ccc(F)cc3)(c3ccc(F)cc3)c3ccc(F)cc3)cc(O)c12` [3d], the activity at 10 µM is -69.8% with HT29; -99.2% with SK-MEL-5; -89.6% with SF-539; -56.5% in the assay with 786-0; -84% with RXF 393; 65% in the assay with NCI/ADR-RES. Moreover, the activity at 10 µM in the assay with KM12 is -81.6%; with SN12C, -82.1%; in the assay with DU-145, -79.2%; with HCT-116 it was -66.6%; in the assay with SNB-19 it was -97.4%; with IGROV1, -64%. For the same compound, the activity at 10 µM in the assay on M14 was -75.5%; in the assay with UACC-257, -82.1%; in the assay on MALME-3M, -82.4%; with UO-31, -86.9%; in the assay with HS 578T it was -54.5%; with HL-60(TB), -46.9%. In addition, the values for the activity at 10 µM in the assay on MCF7, in the assay with MDA-MB-231/ATCC and in the assay with CAKI-1 were -84.8%, -95% and -93.6%, respectively.

Regarding `Cc1ccccc1[P+](CCCCOc1cc(O)c2c(=O)cc(-c3ccccc3)oc2c1)(c1ccccc1C)c1ccccc1C` [3g], the activity at 10 µM in the assay on HT29 was -97.9%; with SK-MEL-5, -97.9%; with SF-539, -97.7%; in the assay on 786-0 it was -98.1%; with RXF 393, -98.7%; with NCI/ADR-RES it was -97.9%. Moreover, the activity at 10 µM in the assay on KM12 is -95.8%; in the assay on SN12C it was -97%; in the assay on DU-145, -97.1%; in the assay on HCT-116, -94.5%; with SNB-19, -97.4%; in the assay on IGROV1 it was -99.1%. Further, the activity at 10 µM in the assay on M14 was -97.5%; in the assay with UACC-257 it was -99.3%; with MALME-3M it was -98.5%; in the assay on HS 578T it was -98.3%; with HL-60(TB), -97.4%; in the assay on MCF7, -95.4%. The activity at 10 µM with CAKI-1 was -97.2%.
